Data on 21 compounds can be found in patent US6509361B1, “1,5-Diaryl substituted pyrazoles as p38 kinase inhibitors” (Pharmacia Corporation, priority 2001, dated 2003).

In general, IC50 refers to the concentration needed to halve the response being measured. Broadly, the melting point is the temperature of the solid-liquid transition.

One data set concerns the target T1, human p38 kinase alpha (Homo sapiens, UniProt Q16539).
T1 construct: The coding region of the human p38a cDNA was obtained by PCR-amplification from RNA isolated from the human monocyte cell line THP.1; GST (N); made in house; host or cells: E. coli DH10B
Nature of the data set: p38 Kinase Assay (in vitro; PHAS-I/32P-ATP format or EGFRP/33P-ATP format). Conditions: activated human p38 kinase alpha, 50 μM unlabeled ATP; table does not say which of the two assay formats. It is filed as biochemical. The procedure: The coding region of the human p38a cDNA was obtained by PCR-amplification from RNA isolated from the human monocyte cell line THP.1. First strand cDNA was synthesized from total RNA as follows: 2 μg of RNA was annealed to 100 ng of random hexamer primers in a 10 μl reaction by heating to 70° C. for 10 minutes followed by 2 minutes on ice. cDNA was then synthesized by adding 1 μl of RNAsin (Promega, Madison Wis.), 2 μl of 50 mM dNTP's, 4 μl of 5×buffer, 2 μl of 100 mM DTT and 1 μl (200 U) of Superscript II™ […] reverse transcriptase. Random primer, dNTP's and Superscript™ reagents were all purchased from Life-Technologies, Gaithersburg, Mass. The reaction was incubated at 42° C. for 1 hour. Amplification of p38 cDNA was performed by aliquoting 5 μl of the reverse transcriptase reaction into a 100 μl PCR reaction containing the following: 80 μl dH2O, 2 μl 50 mM dNTP's, 1 μl each of forward and reverse primers (50 pmol/μl), 10 μl of 10× buffer and 1 μl Expand™ polymerase (Boehringer Mannheim). The PCR primers incorporated Bam HI sites onto the 5′ and 3′ end of the amplified fragment, and were purchased from Genosys. The forward and reverse primers were 5′-[…]-3′ and 5′[…]-3′, respectively. The PCR amplification was carried out in a DNA Thermal Cycler (Perkin Elmer) by repeating 30 cycles of 94° C. for 1 minute, 60° C. for 1 minute and 68° C. for 2 minutes. After amplification, excess primers and unincorporated dNTP's were removed from the amplified fragment with a Wizard™ PCR prep (Promega) and digested with Bam HI (New England Biolabs). The Bam HI digested fragment was ligated into BamHI digested pGEX 2T plasmid DNA (PharmaciaBiotech) using T-4 DNA ligase (New England Biolabs) as described by T. Maniatis, Molecular Cloning: A Laboratory Manual, 2nd ed. (1989). The ligation reaction was transformed into chemically competent E. coli DH10B cells purchased from Life-Technologies following the manufacturer's instructions. Plasmid DNA was isolated from the resulting bacterial colonies using a Promega Wizard™ miniprep kit. Plasmids containing the appropriate Bam HI fragment were sequenced in a DNA Thermal Cycler (Perkin Elmer) with Prism™ (Applied Biosystems Inc.). cDNA clones were identified that coded for both human p38a isoforms (Lee et al. Nature 372, 739). One of the clones which contained the cDNA for p38a-2 (CSBP-2) inserted in the cloning site of pGEX 2T, 3′ of the GST coding region was designated pMON 35802. The sequence obtained for this clone is an exact match of the cDNA clone reported by Lee et al. This expression plasmid allows for the production of a GST-p38a fusion protein.
Expression of Human p38a:
GST/p38a fusion protein was expressed from the plasmid pMON 35802 in E. coli, stain DH10B (Life Technologies, Gibco-BRL). Overnight cultures were grown in Luria Broth (LB) containing […] ampicillin. The next day, 500 ml of fresh LB was inoculated with 10 ml of overnight culture, and grown in a 2 liter flask at 37° C. with constant shaking until the culture reached an absorbance of 0.8 at 600 nm. Expression of the fusion protein was induced by addition of isopropyl b-D-thiogalactosidse (IPTG) to a final concentration of 0.05 mM. The cultures were shaken for three hours at room temperature, and the cells were harvested by centrifugation. The cell pellets were stored frozen until protein purification.
Purification of p38 Kinase-α:
All chemicals were from Sigma Chemical Co. unless noted. Twenty grams of E. coli cell pellet collected from five 1 L shake flask fermentations was resuspended in a volume of PBS (140 mM NaCl, 2.7 mM KCl, 10 mM Na2HPO4, 1.8 mM KH2PO4, pH 7.3) up to 200 ml. The cell suspension was adjusted to 5 mM DTT with 2 M DTT and then split equally into five 50 ml Falcon conical tubes. The cells were sonnicated (Ultrasonics model W375) with a 1 cm probe for 3×1 minutes (pulsed) on ice. […]

For data set [1], the system named is TNF-a (LPS-stimulated human peripheral blood mononuclear cells). Nature of the data set: TNF Cell Assay: LPS stimulation of human PBM cells, TNF-a by ELISA. It is filed as cell-based. Conditions: PBMC, LPS 20 ng/ml, overnight 37° C., compound 10-0.41 μM. How it is done: Method of Isolation of Human Peripheral Blood Mononuclear Cells:
Human whole blood was collected in Vacutainer tubes containing EDTA as an anticoagulant. A blood sample (7 ml) was carefully layered over 5 ml PMN Cell Isolation Medium (Robbins Scientific) in a 15 ml round bottom centrifuge tube. The sample was centrifuged at 450-500×g for 30-35 minutes in a swing out rotor at room temperature. After centrifugation, the top band of cells were removed and washed 3 times with PBS w/o calcium or magnesium. The cells were centrifuged at 400×g for 10 minutes at room temperature. The cells were resuspended in Macrophage Serum Free Medium (Gibco BRL) at a concentration of 2 million cells/ml.
LPS Stimulation of Human PBMS:
PBM cells (0.1 ml, 2 million/ml) were co-incubated with 0.1 ml compound (10-0.41 μM, final concentration) for 1 hour in flat bottom 96 well microtiter plates. Compounds were dissolved in DMSO initially and diluted in TCM for a final concentration of 0.1% DMSO. LPS (Calbiochem, 20 ng/ml, final concentration) was then added at a volume of 0.010 ml. Cultures were incubated overnight at 37° C. Supernatants were then removed and tested by ELISA for TNF-a and IL1-b. Viability was analyzed using MTS. After 0.1 ml supernatant was collected, 0.020 ml MTS was added to remaining 0.1 ml cells. The cells were incubated at 37° C. for 2-4 hours, then the O.D. was measured at […].
For orientation: ELISA stands for enzyme-linked immunosorbent assay.

The subject of data set [2] is TNF-α released by U937 cells (human histiocytic lymphoma cell line). Nature of the data set: U937 Cell Assay: LPS stimulation of TNF production by U937 cells, ELISA. It is filed as cell-based. The settings on record: U-937, differentiated U937 cells, LPS 100 ng/ml, 4 hour incubation. The procedure: Maintenance and Differentiation of the U937 Human Histiocytic Lymphoma Cell Line:
U937 cells (ATCC) were propagated in RPMI 1640 containing 10% fetal bovine serum, 100 IU/ml penicillin, 100 μg/ml streptomycin, and 2 mM glutamine (Gibco). Fifty million cells in 100 ml media were induced to terminal monocytic differentiation by 24 hour incubation with 20 ng/ml phorbol 12-myristate 13-acetate (Sigma). The cells were washed by centrifugation (200×g for 5 min) and resuspended in 100 ml fresh medium. After 24-48 hours, the cells were harvested, centrifuged, and resuspended in culture medium at 2 million cells/ml.
LPS Stimulation of TNF Production by U937 Cells:
U937 cells (0.1 ml, 2 million/ml) were incubated with 0.1 ml compound (0.004-50 μM, final concentration) for 1 hour in 96 well microtiter plates. Compounds were prepared as 10 mM stock solutions in DMSO and diluted in culture medium to yield a final DMSO concentration of 0.1% in the cell assay. LPS (E. coli, 100 ng/ml final concentration) was then added at a volume of 0.02 ml. After 4 hour incubation at 37° C., the amount of TNF-α released in the culture medium was quantitated by ELISA. Inhibitory potency is expressed as IC50 (μM).

T1 sequence (Q16539 whole entry): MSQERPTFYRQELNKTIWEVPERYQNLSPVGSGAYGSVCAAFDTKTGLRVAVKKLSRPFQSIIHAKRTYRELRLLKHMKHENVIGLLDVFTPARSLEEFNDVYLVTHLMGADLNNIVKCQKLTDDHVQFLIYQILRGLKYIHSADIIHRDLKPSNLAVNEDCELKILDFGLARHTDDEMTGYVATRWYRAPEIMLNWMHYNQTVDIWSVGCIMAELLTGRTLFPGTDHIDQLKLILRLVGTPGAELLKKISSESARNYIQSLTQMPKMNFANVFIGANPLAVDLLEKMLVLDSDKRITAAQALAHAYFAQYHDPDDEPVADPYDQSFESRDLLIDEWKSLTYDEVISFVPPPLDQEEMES

`Cc1cnn(Cc2ccccc2)c1-c1ccncc1` [Example 4]: the IC50 is more than 100 µM on human p38 kinase alpha and more than 10 µM in data set [1].
With `Cc1ccc(-n2nc(C)cc2-c2ccnc(N(C)C)c2)cc1` [Example 10], the IC50 is more than 100 µM against human p38 kinase alpha and more than 10 µM in data set [1].
On the same counts, the results for `Cc1cccc(-n2nc(C)cc2-c2ccnc(N(C)CCc3ccccc3)c2)c1` [Example 25, 2-(N-Methylphenylethylamino)-4-[1-(3-methylphenyl)-3-methyl-1H-pyrazol-5-yl]pyridine] are 2.24 µM and 0.8 µM.
The compound `Cc1cccc(-n2nc(C)cc2-c2ccnc(N)c2)c1` [Example 21, 2-Amino-4-[1-(3-methylphenyl)-3-methyl-1H-pyrazol-5-yl]pyridine] registered a melting point of 124 to 125 °C. Also, 0.35 µM corresponded to half-maximal inhibition against human p38 kinase alpha (IC50). The compound also had an IC50 in data set [1] of 0.5 µM.
In the same order, the values of `Cc1ccc(-n2nc(C)cc2-c2ccnc(NCc3cccnc3)c2)cc1` [Example 6] are 108.94 °C, 0.4 µM and 1.5 µM.
`COC(=O)c1cnn(-c2ccc(F)cc2)c1-c1ccncc1` [Example 42, Methyl 1-(4-Fluorophenyl)-5-(4-pyridinyl)-1H-pyrazole-4-carboxylate]: the IC50 is not below 10 µM in data set [2] and 2.68 µM against human p38 kinase alpha.
In the case of `Cc1cccc(-n2nc(C)cc2-c2ccnc(C(N)=O)c2)c1` [Example 33, {4-[1-(3-Methylphenyl)-3-methyl-1H-pyrazol-5-yl]}-2-pyridine-2-carboxamide], the melting point fell in the range of 193 to 195 °C. The compound also showed an IC50 in data set [1] of 5 µM.
Take `CCCc1c[nH][n+](-c2cccc(F)c2)c1-c1ccncc1` [Example 39]: the melting point lay within 93 to 94 °C.
`Fc1ccc(-n2nccc2-c2ccnc(NCCc3ccccc3)c2)cc1` [Example 30, 2-(Phenylethylamino)-4-[1-(4-fluorophenyl)-1H-pyrazol-5-yl]pyridine]: the figures for the IC50 (at human p38 kinase alpha; in data set [1]) were 0.024 µM and 10 µM, respectively.
In the case of `Cc1cnn(-c2cccc(F)c2)c1-c1ccncc1` [Example 2], the melting point turned out to be 131.11 °C. On human p38 kinase alpha, this compound yielded an IC50 of 37.2 µM. For the same compound, inhibition in data set [1] was half-maximal at 4 µM (IC50).
In the same order, the values of `Cc1ccc(-n2nc(C)cc2-c2cccc(N)c2)cc1` [Example 14] are 94.38 °C, more than 100 µM and more than 10 µM.
Regarding `CCc1c[nH][n+](-c2cccc(F)c2)c1-c1ccncc1` [Example 40], the melting point was 109 to 110 °C.
For `Cc1ccc(-n2nc(C)cc2-c2ccnc(NCCO)c2)cc1` [Example 5], the melting point amounted to 148.2 °C. The compound further had an IC50 on human p38 kinase alpha of 1.4 µM. The compound further displayed an IC50 in data set [1] of 0.2 µM.
In the same order, the values of `Cc1cccc(-n2nc(C)cc2-c2ccnc(S(C)(=O)=O)c2)c1` [Example 36, 2-(Methylsulfonyl)-4-[1-(3-methylphenyl)-3-methyl-1H-pyrazol-5-yl]pyridine] are 140 to 142 °C, 29.9 µM and more than 10 µM.
As for `Cc1cc(-c2ccnc(C(N)=O)c2)n(-c2ccc(F)cc2)n1` [Example 34, {4-[1-(4-Fluorophenyl)-3-methyl-1H-pyrazol-5-yl]}pyridine-2-carboxamide], the melting point was 168 to 170 °C. This compound also came in with an IC50 against human p38 kinase alpha of 44 µM.
For the compound `Cc1ccc(-n2nc(C)cc2-c2ccnc(NCc3ccccc3)c2)cc1` [Example 7], the melting point was 102.1 °C. Further, it took 0.01 µM to reach half-maximal inhibition on human p38 kinase alpha (IC50). In addition, the IC50 in data set [1] came out at 1.1 µM.
On the same counts, the results for `Cc1cc(-c2ccnc(N=[N+]=[N-])c2)n(-c2cccc(F)c2)n1` [Example 37, {4-[1-(3-Fluorophenyl)-3-methyl-1H-pyrazol-5-yl]}pyridine-2-azide] are 134 to 135 °C, 85 µM and 2.2 µM.
For the compound `Cc1cc(-c2ccnc(NCc3ccccc3)c2)n(-c2cccc(F)c2)n1` [Example 20, 2-(Benzylamino)-4-[1-(3-fluorophenyl)-3-methyl-1H-pyrazol-5-yl]pyridine], the melting point was in the range of 94 to 96 °C.
For the compound `Cc1ccc(-n2nc(C)cc2-c2ccnc(Cl)c2)cc1` [Example 41, 2-chloro-4-[3-methyl-1-(4-methylphenyl)-1H-pyrazol-5-yl]pyridine], the melting point stood at 100.07 °C. Besides, the IC50 against human p38 kinase alpha turned out to be 14 µM. This compound also yielded an IC50 in data set [1] of 2.9 µM.
As for `Cc1cc(-c2ccnc(NCc3cccnc3)c2)n(-c2cccc(F)c2)n1` [Example 38, 2-(3-Pyridylmethylamino)-4-[1-(3-fluorophenyl)-3-methyl-1H-pyrazol-5-yl]pyridine], the IC50 was 0.219 µM on human p38 kinase alpha and 0.6 µM in data set [1].
As for `Cc1cccc(-n2nc(C)cc2-c2ccnc(NCc3ccccc3)c2)c1` [Example 19, 2-(Benzylamino)-4-[1-(3-methylphenyl)-3-methyl-1H-pyrazol-5-yl]pyridine], the IC50 against human p38 kinase alpha worked out at 0.002 µM; in data set [1] it was 0.1 µM.
